Test results published in US20110053897A1 (IRM LLC, priority 2009, published 2011).

These compounds were tested against T1, Syk kinase (Homo sapiens, UniProt P43405) (assay: Syk kinase inhibition, Caliper LabChip off-chip mobility-shift kinase assay). Settings: Caliper LabChip assay; read-out: Syk Enzyme IC50.
T1 construct: purchased
Assay type: biochemical
Summary of the method: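 Purified Syk pre-incubated 15 min with compound in 100 mM HEPES pH 7.5, 1 mM DTT, 10 mM MgCl2 or MnCl2, 0.002% Brij-35, then 1.5 μM fluorescein peptide and ATP at apparent KM added; 1–1.5 h at room temperature, 4% DMSO, EDTA stop. Microfluidic mobility-shift product/substrate conversion gave % inhibition; IC50 from 12-point series (10–0.00003 μM) by 4-parameter fit.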

Row | Compound | IC50 [nM]
1 | Cc1cc(Nc2cc3ccn(CCO)c(=O)c3c(NC(C)(C)C)n2)ncn1 [compound 886] | 60
2 | CC(C)(C)Nc1nc(Nc2cnccn2)cc2ccn(CC(O)C(F)(F)F)c(=O)c12 (stereo not shown) [compound 1011] | 459
3 | CC(C)(C)Nc1nc(-c2cnc(N)nc2)cc2ccn(CC3CCOCC3)c(=O)c12 [compound 919] | 81
4 | CCn1ccc2cc(Nc3cnccn3)nc(N[C@H](C)CO)c2c1=O [compound 963] | 147
5 | Cc1ccnc(Nc2cc3ccn(CCO)c(=O)c3c(NC3CCS(=O)(=O)C3)n2)c1 (stereo not shown) [compound 974] | 203
6 | NC(=O)Cn1ccc2cc(Nc3cnccn3)nc(NC3CCC3)c2c1=O [compound 754] | 12
7 | COC(C)c1ccnc(Nc2cc3ccn(CCO)c(=O)c3c(NC(C)(C)C)n2)c1 (stereo not shown) [compound 868] | 16
8 | Cn1ccc2cc(Nc3nccc(O)n3)nc(Nc3ccc(C(N)=O)cc3)c2c1=O [compound 804] | 194
9 | Cc1ccnc(Nc2cc3ccn(CCCO)c(=O)c3c(N[C@H]3CC[C@@H](O)CC3)n2)c1 [compound 947] | 19
10 | Cc1nc(-c2ccnc(Nc3cc4ccn(CCO)c(=O)c4c(NC(C)(C)C)n3)c2)no1 [compound 873] | 27
11 | O=c1c2c(NC3CCCC3)nc(Nc3cnccn3)cc2ccn1CC1(CO)COC1 [compound 763] | 12
12 | CCn1ccc2cc(Nc3nccc(O)n3)nc(N[C@H]3CCC[C@@H]3O)c2c1=O [compound 956] | 66
13 | CCn1ccc2cc(Nc3cnccn3)nc(NC(C)(CO)CO)c2c1=O [compound 809] | 153
14 | CC(C)(C)CNc1nc(Nc2cnccn2)cc2ccn(CCO)c(=O)c12 [compound 898] | 20
15 | CC(C)(C)Nc1nc(Nc2cc(N3CC(O)C3)ncn2)cc2ccn(CCO)c(=O)c12 [compound 631] | 233
16 | CC(C)(C)Nc1nc(-c2cnc(N)nc2)cc2ccn(CC3CCCO3)c(=O)c12 (stereo not shown) [compound 918] | 35
17 | CC(C)(C)Nc1nc(Nc2cnccn2)cc2ccn(Cc3ccccn3)c(=O)c12 [compound 1021] | 219
18 | CC(C)(O)Cn1ccc2cc(Nc3cc(C(C)(C)O)ncn3)nc(NC(C)(C)C)c2c1=O [compound 731] | 109

Row | Compound | IC50 [nM]
19 | CC(C)n1ccc2cc(Nc3cnccn3)nc(N[C@H]3CC[C@H](O)CC3)c2c1=O [compound 965] | 61
20 | CC(C)(O)Cn1ccc2cc(-c3cnc(N)nc3)nc(NC(C)(C)C)c2c1=O [compound 928] | 44
21 | CCn1ccc2cc(Nc3cnccn3)nc(NC3(CO)CCCC3)c2c1=O [compound 788] | 324
22 | CC1(Cn2ccc3cc(-c4cnc(N)nc4)nc(NC4CC(F)(F)C4)c3c2=O)COC1 [compound 758] | 90
23 | NC(=O)Cn1ccc2cc(Nc3cnccn3)nc(NC3CCCC3)c2c1=O [compound 752] | 18
24 | CC(C)(C)Nc1nc(Nc2cc(C(F)CO)ccn2)cc2ccn(CCO)c(=O)c12 (stereo not shown) [compound 872] | < 1.17
25 | CC(C)(C)Nc1nc(Nc2cc(-c3cn[nH]c3)ccn2)cc2ccn(CCO)c(=O)c12 [compound 840] | 117
26 | CC(C)n1ccc2cc(Nc3c[n+]([O-])ccn3)nc(N[C@H]3CC[C@@H](O)CC3)c2c1=O [compound 1016] | 105
27 | CC(C)(C)Nc1nc(Nc2ccc(F)cn2)cc2ccn(CCO)c(=O)c12 [compound 696] | 328
28 | CN1CCC(Oc2cc(Nc3cc4ccn(CCO)c(=O)c4c(NC(C)(C)C)n3)ncn2)CC1 [compound 648, 8-(tert-butylamino)-2-(2-hydroxyethyl)-6-(6-(1-methylpiperidin-4-yloxy)pyrimidin-4-ylamino)-2,7-naphthyridin-1(2H)-one] | 6
29 | Cc1ccnc(Nc2cc3ccn(C(C)C)c(=O)c3c(NC(C)(C)C)n2)c1 [compound 821] | 272
30 | CC(C)(C)Nc1nc(Nc2cc(C(C)(C)O)ncn2)cc2ccn(C[C@H](O)CO)c(=O)c12 [compound 740] | 54
31 | CCn1ccc2cc(Nc3cc(C)ccn3)nc(NCC(O)C(F)(F)F)c2c1=O (stereo not shown) [compound 778] | 413
32 | N#CCn1ccc2cc(-c3cnc(N)nc3)nc(NC3CCCC3)c2c1=O [compound 756] | 117
33 | CC(C)(C)Nc1nc(Nc2cnccn2)cc2ccn(CCF)c(=O)c12 [compound 1001] | 49
34 | [2H]C([2H])([2H])n1ccc2cc(Nc3cnccn3)nc(N[C@H]3CC[C@H](O)CC3)c2c1=O [compound 984] | 29
35 | CC(C)(C)Nc1nc(Nc2cc(-c3ccc4[nH]ncc4c3)ccn2)cc2ccn(CCO)c(=O)c12 [compound 851] | 222

Same assay, conditions: read-out: Syk Enzyme IC50

Row | IC50 [nM] | Compound
36 | 140 | Cn1ccc2cc(Nc3cnccn3)nc(NCCCO)c2c1=O [compound 474]
37 | 129 | Cc1ccnc(Nc2cc3ccn(C)c(=O)c3c(NC(C)(C)C)n2)c1 [compound 506]
38 | 120 | COCCNc1nc(Nc2cc(C)ccn2)cc2cc[nH]c(=O)c12 [compound 527]
39 | 226 | CCN1CCN(CCc2ccc(Nc3nc(Nc4cc(C(=O)O)ccn4)cc4cc[nH]c(=O)c34)cc2)CC1 [compound 586]
40 | 81 | CCN1CCN(CCc2ccc(Nc3nc(Nc4cc(C)ccn4)cc4cc[nH]c(=O)c34)cc2)CC1 [compound 585]

The remaining lines, values behind:

Row | Compound | IC50 [nM]
41 | O=c1[nH]ccc2cc(Nc3ccccn3)nc(NC3CCCC3)c12 [compound 296] | 153
42 | COc1cncc(-c2cc3cc[nH]c(=O)c3c(Nc3ccc(C4CCN(C5CC5)CC4)c(C)c3)n2)n1 [compound 210] | 88
43 | [2H]C([2H])([2H])n1ccc2cc(Nc3cnccn3)nc(N[C@H]3CC[C@@H](O)CC3)c2c1=O [compound 377] | 34
44 | COc1cncc(-c2cc3cc[nH]c(=O)c3c(Nc3ccc(C4CCN(C5COC5)CC4)c(C)c3)n2)n1 [compound 164] | 287
45 | C[C@@H]1CN(c2ccc(Nc3nc(-c4cncnc4)cc4cc[nH]c(=O)c34)cn2)C[C@H](C)O1 [compound 18] | 245
46 | CC(C)CC(C)Nc1nc(Nc2ccccn2)cc2cc[nH]c(=O)c12 (stereo not shown) [compound 275] | 3200
47 | CCn1ccc2cc(Nc3cnccn3)nc(N[C@@H]3CCC[C@@H]3O)c2c1=O [compound 419] | 94.4
48 | O=c1[nH]ccc2cc(C3CCOCC3)nc(Nc3ccc(N4CCOCC4)cc3)c12 [compound 87] | 58
49 | COc1cncc(-c2cc3cc[nH]c(=O)c3c(Nc3ccc(C4CCN(CCC(=O)N5CCOCC5)CC4)c(C)c3)n2)n1 [compound 162] | 32
50 | CCNC(=O)c1ccc(Nc2nc(Nc3cc(Cl)ccn3)cc3ccn(C)c(=O)c23)cc1 [compound 382] | 362
51 | CCn1ccc2cc(Nc3cc(C)ccn3)nc(N[C@@H]3CCC[C@@H]3O)c2c1=O [compound 418] | 182
52 | Cc1n[nH]c2ncc(-c3cc4cc[nH]c(=O)c4c(Nc4ccc(N5CCOCC5)cc4)n3)cc12 [compound 192] | 263
53 | Cn1ccc2cc(Nc3cnccn3)nc(N[C@H]3CC[C@@H](O)CC3)c2c1=O [compound 330] | 24
54 | CCn1ccc2cc(Nc3cnccn3)nc(NC(C)C)c2c1=O [compound 307] | 60
55 | CC(C)CNc1nc(-c2cnc(N)nc2)cc2cc[nH]c(=O)c12 [compound 186] | 178
56 | CNC(=O)CCN1CCC(c2ccc(Nc3nc(-c4cncc(OC)n4)cc4cc[nH]c(=O)c34)cc2C)CC1 [compound 161] | 18
57 | Nc1ncc(-c2cc3cc[nH]c(=O)c3c(NCC(F)(F)F)n2)cn1 [compound 450] | 117
58 | COc1cncc(-c2cc3cc[nH]c(=O)c3c(Nc3ccc(C4CCN(CC5CC5(F)F)CC4)c(C)c3)n2)n1 (stereo not shown) [compound 78] | 129

Row | Compound | IC50 [nM]
59 | CCC(C)C(=O)N1CCC(c2ccc(Nc3nc(-c4cncc(OC)n4)cc4cc[nH]c(=O)c34)cc2C)CC1 (stereo not shown) [compound 76] | 225
60 | CCn1ccc2cc(Nc3cnccn3)nc(N[C@H]3CC[C@@H](O)C3)c2c1=O [compound 425] | 316
61 | CCn1ccc2cc(-c3cnc(N)nc3)nc(NC3CC3)c2c1=O [compound 37] | 69
62 | COCCC(=O)N1CCC(c2ccc(Nc3nc(-c4cncc(OC)n4)cc4cc[nH]c(=O)c34)cc2)CC1 [compound 26] | 72
63 | COc1cncc(-c2cc3cc[nH]c(=O)c3c(Nc3ccc(CCN4CCN(C(C)C)CC4)cc3)n2)n1 [compound 21] | 86
64 | COc1cncc(-c2cc3cc[nH]c(=O)c3c(Nc3ccc(CCN4CCN(CCC#N)CC4)cc3)n2)n1 [compound 66] | 55
65 | COc1cncc(-c2cc3cc[nH]c(=O)c3c(Nc3ccc(C4CCN(C(C)CC#N)CC4)c(C)c3)n2)n1 (stereo not shown) [compound 171] | 160
66 | Nc1ncc(-c2cc3cc[nH]c(=O)c3c(NCC3CC3)n2)cn1 [compound 189] | 384
67 | O=c1c2c(N[C@H]3CCOC3)nc(Nc3cnccn3)cc2ccn1CCO [compound 375] | 14
68 | CCn1ccc2cc(Nc3cc(C)ccn3)nc(N[C@@H](C)CO)c2c1=O [compound 359] | 25
69 | COc1cncc(-c2cc3cc[nH]c(=O)c3c(Nc3ccc(C4CCN(C(C)C(=O)O)CC4)c(C)c3)n2)n1 (stereo not shown) [compound 117] | 22
70 | CCn1ccc2cc(Nc3cnccn3)nc(N[C@H]3CCC[C@H]3O)c2c1=O (racemic) [compound 354] | 18
71 | Cc1cc(C)nc(Nc2cc3cc[nH]c(=O)c3c(Nc3ccc(C4CCN(C5CC5)CC4)c(C)c3)n2)c1 [compound 256] | 141
72 | CCN1CCN(Cc2n[nH]c3cc(Nc4nc(-c5ccc(C)nc5)cc5cc[nH]c(=O)c45)ccc23)CC1 [compound 203] | 49
73 | COc1cncc(-c2cc3cc[nH]c(=O)c3c(Nc3ccc(C4CN(CCO)C4)cc3)n2)n1 [compound 147] | 4
74 | CCn1ccc2cc(Nc3cc(C)ccn3)nc(N[C@H]3CCC[C@H]3O)c2c1=O (racemic) [compound 360] | 67
75 | COCCn1ccc2cc(Nc3cnccn3)nc(NC(C)C)c2c1=O [compound 319] | 137
76 | Cn1ccc2cc(Nc3cc(Cl)ccn3)nc(N[C@H]3CC[C@H](O)CC3)c2c1=O [compound 385] | 28
